{"source": "paper PMC10291556", "about": "(Journal of Medicinal Chemistry, 2023)", "key": {"A2780": {"tested_on": "A2780", "assay": "MTT antiproliferative assay, 72 h", "assay_type": "cell-based, human", "details": "read-out: IC50 A2780", "procedure": "(§1) Cells were treated with the tested compounds in a final volume of 200 μL/well. […] Calbiochem, Darmstadt, Germany) was added, and the cells were incubated for an additional 2–4 h. The medium was removed, and the insoluble formazan product was dissolved in 100 μL/well DMSO. The absorbance was read at 570 nm (vs 620 nm) using an Absorbance Reader (SUNRISE TECAN SCHOELLER). The read values were converted to the percentage of control. […] All experiments were made in triplicate."}, "MCF-7": {"tested_on": "MCF-7", "assay": "MTT antiproliferative assay, 72 h", "assay_type": "cell-based, human", "details": "read-out: IC50 MCF-7", "procedure": "as §1"}, "HeLa": {"tested_on": "HeLa", "assay": "MTT antiproliferative assay, 72 h", "assay_type": "cell-based, human", "procedure": "as §1"}, "A2780cisR": {"tested_on": "A2780cisR", "assay": "MTT antiproliferative assay, 72 h", "assay_type": "cell-based, human", "details": "read-out: IC50 A2780cisR", "procedure": "as §1"}, "MDA-MB-231": {"tested_on": "MDA-MB-231", "assay": "MTT antiproliferative assay, 72 h", "assay_type": "cell-based, human", "details": "read-out: IC50 MDA-MB-231", "procedure": "as §1"}, "HCT-116": {"tested_on": "HCT-116", "assay": "MTT antiproliferative assay, 72 h", "assay_type": "cell-based, human", "details": "read-out: IC50 HCT-116", "procedure": "as §1"}, "COX in HeLa cells": {"tested_on": "COX in HeLa cells", "assay": "COX activity assay (kit) in treated cells", "assay_type": "cell-based, human", "details": "24 h, 1× IC50,72h, vs untreated control", "procedure": "The results are expressed relative to the COX activity of untreated control.\nHeLa cells were seeded in 6-well plates at a density of 10^5 cells/well and incubated overnight. The cells were treated with the tested compounds at concentrations corresponding to 1× IC50. Following a 24 h treatment, the cells were lyzed with radioimmunoprecipitation assay (RIPA) buffer supplemented with proteinase inhibitors on ice for 10 min. The extracts were cleared with centrifugation (12,000g/5 min), and protein content was determined using Bradford assay. COX activity was determined with a COX Activity Assay Kit (Abcam). 6 μg of protein was used in the reaction. The experiment was set up according to the manufacturer’s instructions. The fluorescence (Ex/Em 535/587 nm) was read in a kinetic mode, and the COX inhibition was expressed as a percentage of the activity of the untreated control."}, "HeLa cells [1]": {"tested_on": "HeLa cells", "assay": "ATP secretion", "assay_type": "cell-based, human", "details": "1× and 3× IC50, 24 h", "experimental": "HeLa cells were seeded in 24-well plates at a density of 10^4 cells/well, grown overnight, and then treated with the tested complexes for 24 h. Aliquots of culture medium samples were withdrawn, centrifugated (500g, 3 min), and processed with ATP Bioluminescence Assay Kit CLS II, Roche. Briefly, 50 μL of cell-free medium samples were added to a 96-well flat white plate, and an equal volume of luciferase reagent was added. The luminescence was measured immediately on a plate reader (SPARK, Tecan). The blank (no ATP) was subtracted from the raw data. ATP concentrations were obtained from the standard curve and normalized to cell counts and control. The data are shown as MEAN of 4–5 independent measurements."}, "HeLa cells [2]": {"tested_on": "HeLa cells", "assay": "HMGB1 release (ELISA)", "assay_type": "cell-based, human", "details": "1×, 2×, 3× IC50, 20 h", "experimental": "(B) Extracellular level of HMGB1. […] The data in panels A, B, and C are shown as a mean of 4–5 measurements ± SD. Statistical significance from untreated control was determined with the Student t-test (*p ≤ 0.05, **p ≤ 0.01, and ^#p ≤ 0.001).\nHeLa cells were seeded in 24-well plates at a density of 10^4 cells/well and grown overnight. The medium was removed, and a fresh medium (DMEM, 1% BSA, no FBS) containing indicated concentrations of tested complexes was added (300 μL). Following a 20 h treatment, medium samples were withdrawn, and the HMGB1 content was determined using an HMGB1 ELISA Kit (IBL international) following the instructions for use. Cell counts in corresponding wells were determined using Automated Cell Counter (Bio-Rad). HMGB1 concentrations were normalized to cell counts and to the value of untreated control. The experiment was performed twice with duplicate readings."}, "[3]": {"assay": "MTT assay in non-cancerous fibroblasts, 72 h", "assay_type": "cell-based", "details": "MRC-5 cells (non-cancerous fibroblasts), non-cancerous human fibroblasts, 72 h incubation, mean ± SD", "procedure": "as §1, with “The absorbance was read at 570 nm (vs 620 nm) using an Absorbance Reader (SUNRISE TECAN SCHOELLER).” left out"}, "HeLa cells [4]": {"tested_on": "HeLa cells", "assay": "Calreticulin exposure (flow cytometry)", "assay_type": "cell-based, human", "details": "3× IC50, 16–18 h, DAPI-negative cells", "experimental": "Following the treatment, the cells were harvested (trypsin), washed with FACS buffer (PBS, BSA 1%, and FBS 2%), and incubated with Alexa Fluor 488 Anti-Calreticulin antibody for 40 min at 4 °C. The buffer was removed (CFG, 300 g, 3 min) and replaced with FACS buffer containing DAPI (1 μg mL^–1, 20 min), and the cells were analyzed with flow cytometry (BD FACS Verse) and FCS Express 6 (DeNovo Software, Glendale, CA). Calreticulin fluorescence histograms were analyzed in the DAPI-negative (intact membrane) cell population."}, "HeLa cells [5]": {"tested_on": "HeLa cells", "assay": "Mitochondrial membrane potential (TMRE, flow cytometry)", "assay_type": "cell-based, human", "details": "10× IC50, 1 h, vs untreated control", "procedure": "Figure 4 Changes in the mitochondrial membrane potential Δψm in HeLa cells. The cells were treated with Pt compounds at the concentrations corresponding to 10× IC50 for 1 h and subsequently stained with TMRE. The fluorescence was measured by flow cytometry. Data represents mean ± SD from three independent experiments, *p < 0.01.\nHeLa cells were seeded (6-well plates, 3 × 10^5 cells/well), grown overnight, and then treated with the tested compounds for 1 h. The medium was removed, and a fresh medium containing TMRE (Thermo Fisher Scientific) at a final concentration of […] in 500 μL was added. The cells were incubated for 30 min at 37 °C and then harvested using trypsin. TMRE fluorescence was measured with a fluorescence-activated cell sorting (FACS) Verse flow cytometer (Becton Dickinson), and the data were analyzed using the ModFit LT 4.1 (Verity Software House) software. The experiment was performed in triplicate."}, "[6]": {"tested_on": "HeLa cells / Thp-1/PMA macrophages", "assay": "Phagocytosis of treated HeLa cells by Thp-1/PMA macrophages", "assay_type": "cell-based, human", "details": "HeLa treated 24 h at 1× or 3× IC50,72h, co-incubated 2.5 h with Thp-1/PMA macrophages", "procedure": "Figure 8 Hallmarks of ICD. (A) Extracellular ATP levels in HeLa cell supernatants. […] (B) Extracellular level of HMGB1. […] (C) Calreticulin exposure to the cell surface. […] The surface calreticulin exposure was determined in 4′,6-diamidino-2-phenylindole dihydrochloride (DAPI)-negative cell population. Relative fluorescence intensity was calculated as the median fluorescence of the population of treated cells/median fluorescence of untreated control cells. The data in panels A, B, and C are shown as a mean of 4–5 measurements ± SD. Statistical significance from untreated control was determined with the Student t-test (*p ≤ 0.05, **p ≤ 0.01, and ^#p ≤ 0.001). (D) Quantitative evaluation of phagocytosis of HeLa cells treated with the investigated compounds by human Thp-1/PMA macrophages (analyzed by flow cytometry). […] Error bars are the SEMs calculated from three independent experiments. The stars denote a significant difference from untreated control (*p ≤ 0.05, **p ≤ 0.01) as calculated by the […] Student t-test. […]\nHuman monocytic leukemia cells Thp-1 (obtained from American Type Culture Collection, ATCC) were differentiated into macrophages with phorbol 12-myristate 13-acetate (PMA, 100 nM) for 24 h. […] Phagocytosis was evaluated using flow cytometry (BD FACSVerse), and data were analyzed with FCS Express 7 (DeNovo software; Glendale, CA). […]"}, "oral cancer xenograft": {"tested_on": "oral cancer xenograft", "parameters": "method as in PMID 33305724", "details": "BALB/c nude mice; cited from earlier work"}, "[7]": {"tested_on": "DNA isolated from HeLa cells", "assay": "Pt associated with DNA isolated from treated HeLa cells", "assay_type": "cell-based, human", "details": "1 µM compound, 6 h, mean ± SD", "source_text": "page 16: Table S1: […] concentration of tested compounds for 6 ha. […] Figure S19: A. Representative histograms obtained by flow cytometric analysis of calreticulin exposure in HeLa cells treated with indicated compounds. B. An example of gating DAPI negative population. Only DAPI-negative cells were taken for the evaluation."}, "HeLa cells [8]": {"tested_on": "HeLa cells", "assay": "Cellular accumulation of platinum (ICP-MS)", "assay_type": "cell-based, human", "procedure": "Briefly, 3 × 10^6 cells were seeded in 100 mm culture dishes and grown overnight. The cells were exposed to the tested complexes at indicated concentrations for indicated periods. […] The pellets were digested using the microwave acid (HCl) digestion system (CEM Mars). The platinum quantity taken up by the cells was determined by inductively coupled plasma mass spectrometry (ICP–MS). All experiments were performed in triplicate."}, "MRC-5": {"tested_on": "MRC-5", "assay": "MTT assay in non-cancerous fibroblasts, 72 h", "assay_type": "cell-based", "details": "non-cancerous human fibroblasts, 72 h incubation, mean ± SD", "procedure": "as §1, with “The absorbance was read at 570 nm (vs 620 nm) using an Absorbance Reader (SUNRISE TECAN SCHOELLER).” left out"}, "[9]": {"assay": "Partition coefficient, shake-flask method", "assay_type": "physicochemical", "details": "octanol/water", "procedure": "The “shake flask” method was used to measure the partition coefficients (P) of platinum compounds. The compounds were dissolved in octanol-saturated water (OSW) containing 200 mM NaCl. […] After careful separation of the layers with a fine-tip pipet, the Pt content in individual phases was determined by flameless atomic absorption spectrometry. The partition coefficients were calculated as the concentration ratio of the compound in the octanol layer to that in the aqueous layer, log P = log([Pt]WSO/[Pt]OSW)."}, "[10]": {"tested_on": "peritoneal carcinomatosis", "parameters": "method as in PMID 20535526", "details": "BD-IX rats; cited from earlier work"}, "tumor cells": {"tested_on": "tumor cells", "details": "cited from earlier work"}, "[11]": {"details": "MTT, 72 h incubation, mean ± SD"}}, "note": "Where two headings read alike, the source gives them in different places."}
{"smiles": "O=C([O-])Cc1ccccc1Nc1c(Cl)cccc1Cl.[Na+]", "note": "[DCF, sodium {2-[(2,6-dichlorophenyl)amino]phenyl}-acetate, reference compound]", "values": [{"measurement": "IC50", "setting": "A2780; Homo sapiens, A2780, 72 h", "result": "238 ± 19", "unit": "µM"}, {"measurement": "IC50", "setting": "MCF-7; Homo sapiens, MCF7, 72 h", "result": "259 ± 17", "unit": "µM"}, {"measurement": "IC50", "setting": "HeLa; Homo sapiens, HeLa, 72 h, read-out: IC50 HeLa", "result": "250 ± 22", "unit": "µM"}, {"measurement": "IC50", "setting": "HeLa; Homo sapiens, HeLa, read-out: HeLa (biological data CSV)", "result": "240 ± 15", "unit": "µM"}, {"measurement": "IC50", "setting": "A2780cisR; Homo sapiens, A2780cisR, 72 h", "result": "138 ± 8", "unit": "µM"}, {"measurement": "IC50", "setting": "MDA-MB-231; Homo sapiens, MDA-MB-231, 72 h", "result": "187 ± 15", "unit": "µM"}, {"measurement": "IC50", "setting": "HCT-116; Homo sapiens, HCT-116, 72 h", "result": "211 ± 10", "unit": "µM"}, {"measurement": "inhibition of COX activity", "setting": "COX in HeLa cells", "result": "Inhibition of COX activity was also observed"}, {"measurement": "ATP secretion", "setting": "HeLa cells [1]", "result": "effective as well"}, {"measurement": "HMGB1 secretion", "setting": "HeLa cells [2]", "result": "effective as well"}, {"measurement": "IC50 at 72 h", "setting": "[3]", "result": "445 ± 36", "unit": "µM"}, {"measurement": "externalization of calreticulin", "setting": "HeLa cells [4]", "result": "effective as well"}, {"measurement": "mitochondrial membrane potential Δψm (TMRE fluorescence)", "setting": "HeLa cells [5]", "result": "approximately the same effect"}]}
{"smiles": "Cc1c(C)c2cccnc2c2ncccc12.N[C@H]1CCCC[C@@H]1N.[Pt]", "note": "[complex 1, [Pt(1S,2S-diaminocyclohexane)(5,6-dimethyl-1,10-phenanthroline)]^2+]", "values": [{"measurement": "IC50", "setting": "A2780; [11]", "result": "0.19 ± 0.04", "unit": "µM"}, {"measurement": "IC50", "setting": "MCF-7; [11]", "result": "0.7 ± 0.1", "unit": "µM"}, {"measurement": "IC50", "setting": "HeLa; MTT, 72 h incubation, mean ± SD, read-out: IC50 HeLa", "result": "0.37 ± 0.01", "unit": "µM"}, {"measurement": "IC50", "setting": "A2780cisR; [11]", "result": "0.06 ± 0.01", "unit": "µM"}, {"measurement": "IC50", "setting": "MDA-MB-231; [11]", "result": "0.24 ± 0.03", "unit": "µM"}, {"measurement": "IC50", "setting": "HCT-116; [11]", "result": "0.08 ± 0.01", "unit": "µM"}, {"measurement": "ATP secretion", "setting": "HeLa cells [1]", "result": "effective as well"}, {"measurement": "HMGB1 secretion", "setting": "HeLa cells [2]", "result": "effective as well"}, {"measurement": "increase of tumor-cell phagocytosis", "setting": "[6]", "result": "roughly as effective as its Pt(IV) analogues 2–4"}, {"measurement": "in vivo anticancer effect, oral cancer xenograft", "setting": "oral cancer xenograft", "result": "potent anticancer effect"}, {"measurement": "amount of Pt associated with DNA", "setting": "[7]", "result": "2.0 ± 0.2", "unit": "pg Pt/µg DNA"}, {"measurement": "cellular uptake 0.1 μM/24 h", "setting": "HeLa cells [8]; 0.1 μM complex, 24 h", "result": "4.4 ± 0.5", "unit": "ng Pt/10^6 cells"}, {"measurement": "cellular uptake 1 μM/6 h", "setting": "HeLa cells [8]; 1 μM complex, 6 h", "result": "13 ± 3", "unit": "ng Pt/10^6 cells"}, {"measurement": "cellular uptake 10 μM/6 h", "setting": "HeLa cells [8]; 10 μM complex, 6 h", "result": "72 ± 2", "unit": "ng Pt/10^6 cells"}, {"measurement": "IC50", "setting": "MRC-5", "result": "0.17 ± 0.04", "unit": "µM"}, {"measurement": "externalization of calreticulin", "setting": "HeLa cells [4]", "result": "effective as well"}, {"measurement": "log P", "setting": "[9]", "result": "–1.7 ± 0.2"}, {"measurement": "in vivo antitumor activity, peritoneal carcinomatosis", "setting": "[10]", "result": "no antitumor activity"}]}
{"smiles": "O=C1[O][Pt]2([NH][C@@H]3CCCC[C@H]3[NH]2)[O]C1=O", "note": "[oxaliplatin]", "values": [{"measurement": "tumor cell phagocytosis", "setting": "tumor cells", "result": "does not promote tumor cell phagocytosis"}]}
